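Briefly, cells in 96-well plates were exposed to five compound concentrations for 48 h, and endpoints were estimated by linear interpolation. TGI is the concentration that stops growth completely.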
Legend:
Test in all cases: growth of human tumour cells (NCI), 48 h
HOP-92 NSCLC = tested on: HOP-92 NSCLC
CCRF-CEM leukemia = tested on: CCRF-CEM leukemia
MDA-MB-435 = tested on: MDA-MB-435
PC-3 prostate = tested on: PC-3 prostate
T-47D breast = tested on: T-47D breast
NCI-H226 lung = tested on: NCI-H226 lung
SNB-75 CNS = tested on: SNB-75 CNS
RXF 393 renal = tested on: RXF 393 renal
A498 renal = tested on: A498 renal
M14 melanoma = tested on: M14 melanoma
UO-31 renal = tested on: UO-31 renal
NCI/ADR-RES ovarian = tested on: NCI/ADR-RES ovarian
LOX IMVI melanoma = tested on: LOX IMVI melanoma
HOP-62 NSCLC = tested on: HOP-62 NSCLC
SN12C renal = tested on: SN12C renal
NCI-H460 lung = tested on: NCI-H460 lung
HL-60(TB) leukemia = tested on: HL-60(TB) leukemia

| Structure (SMILES) | TGI (HOP-92 NSCLC) [µM] | TGI (CCRF-CEM leukemia) [µM] | TGI (MDA-MB-435) [µM] | TGI (PC-3 prostate) [µM] | TGI (T-47D breast) [µM] | TGI (NCI-H226 lung) [µM] | TGI (SNB-75 CNS) [µM] | TGI (RXF 393 renal) [µM] | TGI (A498 renal) [µM] | TGI (M14 melanoma) [µM] | TGI (UO-31 renal) [µM] | TGI (NCI/ADR-RES ovarian) [µM] | TGI (LOX IMVI melanoma) [µM] | TGI (HOP-62 NSCLC) [µM] | TGI (SN12C renal) [µM] | TGI (NCI-H460 lung) [µM] | TGI (HL-60(TB) leukemia) [µM] |
| --- | --- | --- | --- | --- | --- | --- | --- | --- | --- | --- | --- | --- | --- | --- | --- | --- | --- |
| CC1(C)[C@@H](Cn2cc(I)c(=O)[nH]c2=O)CC[C@@]1(C)CO | > 100 | > 100 | > 100 | > 100 | > 100 | > 100 | > 100 | > 100 | > 100 | > 100 | > 100 | > 100 | > 100 | > 100 | > 100 | – | – |
| C/C(=N\NC(N)=S)c1ccc2c(c1)Sc1ccccc1O2 | 28 | > 100 | 0.95 | 28.8 | > 100 | > 100 | 7.21 | – | 8.63 | > 100 | 28.3 | 10.6 | 13.1 | 29 | > 100 | 11.8 | > 100 |
| N=c1oc2ccccc2cc1C(=O)NC12CC3CC(CC(C3)C1)C2 | > 100 | 17.2 | > 83.6 | > 68.9 | 22.7 | > 90.3 | 71.3 | 24.2 | > 82.1 | > 100 | 0.471 | > 100 | > 59.8 | > 83.7 | > 100 | 31.4 | 30.7 |
| Cc1ccc(-[n+]2cc([O-])on2)cc1 | > 100 | > 100 | > 100 | > 100 | > 100 | > 100 | – | > 100 | > 100 | > 100 | > 100 | > 100 | > 100 | > 100 | > 100 | > 100 | > 100 |
| O=C1SC(SCc2ccccc2)=NC12CC2c1ccccc1 (stereo unspecified) | 53.1 | 11.1 | 59.3 | > 66.8 | > 100 | 52 | 71.6 | 37.2 | 65.1 | 37.8 | 41.2 | 63 | 38 | > 82.8 | 44.3 | 41.4 | 21.5 |
| C=CCNC(=S)N/C=C(\C#N)C(N)=O | – | > 100 | > 100 | > 100 | > 100 | > 100 | > 100 | > 100 | > 100 | > 100 | > 100 | > 100 | > 100 | > 100 | > 100 | > 100 | > 100 |
| O=C1c2cccc3cc([N+](=O)[O-])cc(c23)C(=O)N1Nc1ccc([N+](=O)[O-])cc1[N+](=O)[O-] | > 31.6 | 14.5 | > 46.4 | 72.7 | > 31.6 | > 31.6 | > 31.6 | > 31.6 | 41.1 | > 74.9 | 33.1 | > 31.6 | 19.4 | 50.5 | > 73.5 | 36.2 | 27.5 |
| CSC(=O)c1sc(SC)[n+](-c2ccccc2)c1O | – | 38.1 | 35.5 | 29.8 | 29.5 | 52.9 | 27.2 | 28 | > 100 | 29.2 | 31.4 | > 100 | 44.8 | 32.1 | 38.8 | 86.3 | – |
| COc1cc2c(/C=C3/C(=O)Nc4cccc(Cl)c43)c(Cl)[nH]c2cc1C | 22.6 | 3.3 | 3.44 | 11.8 | 5.48 | 7.59 | 4.03 | 7.41 | 20.7 | 7.78 | 17.1 | 3.45 | 3.68 | 10.2 | 3.33 | 3.78 | 4.56 |
| Cc1ccc2nc(-c3ccccc3)cc(=O)n2c1 | > 100 | > 100 | > 100 | > 100 | > 100 | > 100 | > 100 | > 100 | – | > 100 | – | > 100 | – | > 100 | > 100 | > 100 | > 100 |
| COC(=O)CC(C)(NS(=O)c1ccc(C)cc1)c1ccccc1 (stereo unspecified) | > 100 | – | > 100 | > 100 | > 100 | > 100 | – | > 100 | > 100 | – | > 100 | > 100 | > 100 | > 100 | > 100 | > 100 | > 100 |
| CCOC(=O)c1cn2c(n1)sc1cc(F)ccc12 | > 100 | > 100 | > 100 | > 100 | > 100 | > 100 | > 100 | > 100 | > 100 | > 100 | > 100 | > 100 | > 100 | > 100 | > 100 | > 100 | – |
| CC(=O)CC1CCC(=O)/C=C/C(=O)OC(CC(C)=O)CCC(=O)/C=C/C(=O)O1 (stereo unspecified) | 10.3 | > 100 | 32 | 28.6 | 6.79 | 61.3 | 28.8 | 8.55 | 33.7 | 10.6 | 26.9 | 53.2 | 35.1 | 42.8 | 15.3 | 36.3 | – |
| C[C@]12c3c4cc(NC(=O)C(=O)NCc5ccc(-c6ccccn6)nc5)cc3Oc3cc(NC(=O)C(=O)NCc5ccc(-c6ccccn6)nc5)cc(c31)OC1C=C(NC(=O)C(=O)NCc3ccc(-c5ccccn5)nc3)C=C(O4)C12 (stereo partly specified) | – | > 100 | > 100 | > 100 | 97.9 | > 100 | 76.3 | > 100 | – | > 100 | 68.6 | > 100 | 70.4 | > 100 | > 100 | > 100 | > 100 |
| CC1=NN(c2nc(N)nc(COc3ccc(N)cc3)n2)C(C)(C)C1 | > 100 | > 100 | > 100 | > 100 | > 100 | > 100 | > 100 | > 100 | > 100 | > 100 | > 100 | > 100 | > 100 | > 100 | – | > 100 | > 100 |
| COC(=O)[C@]1(C)CCC[C@@]2(C)C1CC[C@@]13C=C(C(C)C)[C@@H](CC1=O)CC23 (stereo partly specified) | – | 42.4 | > 100 | > 100 | > 100 | 39 | > 100 | 41.2 | – | > 100 | 49 | 67.5 | – | 83.9 | 41.2 | > 100 | 36.4 |
| C[N+]12C=CC=C1C(N1CCCC1)c1scc(-c3ccc(Br)cc3)c12 (stereo unspecified) | 42.1 | 58.9 | 76.9 | 99.2 | 61.8 | > 100 | > 22.3 | 43.5 | > 100 | > 66.4 | > 100 | > 100 | > 100 | 98.2 | > 35.7 | > 84.7 | – |
| N#C/C(N)=C(\C#N)NC=NCCO | – | > 100 | > 100 | > 100 | > 100 | > 100 | > 100 | – | > 100 | > 100 | > 100 | > 100 | > 100 | > 100 | > 100 | > 100 | > 100 |
| O=C1c2ccccc2-n2nnnc2C2CSCN12 (stereo unspecified) | – | > 100 | > 100 | > 100 | > 100 | > 100 | > 100 | > 100 | > 100 | > 100 | > 100 | > 100 | > 100 | > 100 | > 100 | > 100 | – |
| Nc1ncc2c(n1)-c1ccccc1OC2N1CCCCC1 (stereo unspecified) | > 100 | > 100 | > 100 | > 100 | > 100 | > 100 | > 100 | > 100 | > 100 | > 100 | > 100 | > 100 | > 100 | – | > 100 | > 100 | > 100 |
| O=C1c2sc(-c3ccc(Cl)cc3)cc2-n2cccc21 | – | > 100 | > 100 | > 100 | > 100 | > 100 | > 100 | > 100 | > 100 | > 100 | > 100 | > 100 | > 100 | > 100 | > 100 | > 100 | – |
| CC(C)=C[C@H]1C[C@H](C)[C@H]2CC[C@H](C)c3c2c1c(C)c1ncoc31 | 31.4 | 39.6 | 38.9 | 35.2 | 37.9 | 33.2 | 36.2 | 25.7 | 34.9 | 29.3 | 31.5 | 32.4 | 37.7 | – | 35.6 | 35.6 | 44.8 |
| O=C(C(=O)n1ccc2ccccc21)n1ccc2ccccc21 | > 100 | > 100 | > 100 | > 100 | > 100 | > 100 | 56 | > 100 | > 100 | – | > 100 | > 100 | > 100 | > 100 | > 100 | > 100 | – |
| Cc1[nH]c(=O)nc2sc(=NC3CCCCC3)n(C3CCCCC3)c(=O)c12 | > 100 | > 100 | > 100 | > 100 | > 100 | > 100 | > 100 | – | > 100 | > 100 | > 100 | > 100 | > 100 | > 100 | > 100 | – | > 100 |
| CC1=C/C(=N\NC(N)=S)C(C(O)(C(F)(F)F)C(F)(F)F)C(C)(C)C1 (stereo unspecified) | > 10 | > 10 | > 10 | > 10 | > 10 | > 10 | > 10 | > 10 | > 10 | > 10 | – | > 10 | > 10 | > 10 | > 10 | > 10 | > 10 |
| O=[N+]([O-])c1ccc2nc(Nc3ccccc3)c(Nc3ccccc3)nc2c1 | 4.88 | > 100 | 4.4 | 10.3 | 8.63 | 5.1 | 5.25 | 6.6 | 11.6 | – | 2.57 | 6 | 3.14 | 2.45 | 2.67 | 1.61 | 40.4 |
| CCOC(=O)c1nnn(CCCCO)c1C(=O)OCC | > 100 | > 100 | > 100 | > 100 | > 100 | > 100 | > 100 | > 100 | – | – | > 100 | > 100 | > 100 | > 100 | > 100 | > 100 | – |
| CC(C)C(NC(=O)Oc1ccccc1)C(=O)NC1c2c(Br)sc(Br)c2C(=O)C1O (stereo unspecified) | – | 15.6 | 13.1 | > 25 | 16.7 | > 25 | > 25 | 7.25 | > 25 | 11.4 | > 25 | 16.5 | 8.91 | – | 10.8 | 8.64 | > 25 |
| O=C(O)Cc1ccc([N+](=O)[O-])cc1[N+](=O)[O-] | – | > 100 | > 100 | > 100 | > 100 | > 100 | > 100 | > 100 | > 100 | > 100 | > 100 | > 100 | > 100 | > 100 | > 100 | > 100 | > 100 |

Reference: PubChem BioAssay (NCI)
